Laboratory results published in patent publication US7371555B2, “Polypeptides having α-H-α-amino acid amide racemase activity and nucleic acids encoding the same” (DSM IP Assets B.V., priority 2002, dated 2008).
Residues, ends and D or L forms follow the SMILES beside them.

Assays:
[1] = tested on: α-H-α-amino acid amide racemase from Arthrobacter nicotianae NCIMB 41126; test: Substrate specificity, CFE from E. coli DH10B/pAn(1)PLV36D06 (Example 9); format: biochemical; details: relative to the activity towards D-leucine amide; 75 mM substrate, pH 8.0, 37° C.
Method: Preparation of the CFE of E. coli DH10B/pAn(1)PLV36D06 was performed as described in Example 7 for E. coli TOP10/pKEC_AZAR—3
Before applying the CFE from E. coli DH10B/pAn(1)PLV36D06 in the reactions with different enantiomerically pure α-H-α-amino acid amides to determine the substrate specificity of the A. nicotianae α-H-α-amino acid amide racemase, the E. coli amidases/aminopeptidases in this CFE were inhibited by a pre-treatment with an inhibitor cocktail. One tablet of Complete Mini Protease Inhibitor Cocktail (Roche Applied Science, Mannheim, Germany) was dissolved in 9 ml of the CFE followed by an incubation of 1 hour at room temperature. Next, reaction mixtures of 10 ml each (including the CFE) were prepared containing 50 mM HEPES-NaOH, pH 8.0, 20 μM pyridoxal-5-phosphate, 0.4 mg/ml BSA, 1 mM dithiothreitol and 75 mM of one of the amino acid amides tested. Reactions were started by the addition of 1 ml of the pre-treated CFE of E. coli DH10B/pAn(1)PLV36D06 or E. coli TOP10/pBAD/Myc-HisC (blank) and were incubated at 37° C. At regular time intervals samples of 1 ml were taken and transferred to vials containing 1 ml of 1M H3PO4 to stop the reaction. After sufficient dilution of the samples in 0.4 M borate buffer pH 9.4, the mixtures obtained were analyzed using HPLC to determine the exact concentrations of the two amino acid and two amino acid amide enantiomers according to the method of Example 7.

[2] = tested on: E. coli clones with plasmid encoded A. nicotianae NCIMB 41126 α-H-α-amino acid amide racemase activity; test: Confirmation of potential positive clones of the A. nicotianae NCIMB 41126 gene library; format: cell-based, Arthrobacter nicotianae NCIMB 41126; details: 70 mM substrate, 10 μM pyridoxal-5-phosphate, 20 h at 30° C.
Method: Of all 32 potential positive clones identified in the screening, material from the masterplates was used to inoculate 3 ml of liquid screening medium containing 50 mg/l kanamycin. After growth for 2 days at 30° C., cells were collected by centrifuging 2 ml of these cell cultures. Then the cell pellets were washed four times in 25 mM Tris-HCl buffer, pH 7.5. Subsequently, the cell pellets were resuspended in 100 μl substrate solution containing 70 mM of D-phenylalanine amide, or D-leucine amide, or D-valine amide in 50 mM Tris-HCl, pH 7.5 and 1 mM MnCl2. After incubation for 20 h at 30° C., the reactions were stopped by the addition of 100 μl of 0.15 M HCl, after which the reaction mixtures were analyzed by the HPLC method described in Example 1.
Confirmation of both potential positive clones was done according to the protocol given in Example 3, with the exception that all 3 substrate solutions used contained 10 μM of pyridoxal-5-phosphate.

[3] = tested on: α-H-α-amino acid amide racemase from Ochrobactrum anthropi IA; test: Substrate specificity, CFE from E. coli TOP10/pKEC_AZAR_3 (Example 7); format: biochemical; details: relative to the activity towards D-leucine amide; 75 mM substrate, 20 mM EDTA, pH 8.0, 37° C.
Method: Two pre-cultures of E. coli TOP10/pKEC_AZAR—3 (see Example 4) were prepared by inoculation of 2 erlenmeyer flasks with 100 ml of 2*TY medium (10 g/l Yeast extract, 16 g/l Tryptone, 5 g/l NaCl) containing 50 mg/l of kanamycin with 10 μl of a glycerol stock per flask. After overnight cultivation at 28° C. and 200 rpm, the pre-cultures were pooled, and subsequently used to inoculate 2 erlenmeyer flasks each containing 1 l of the same medium. Also these flasks were cultivated at 28° C. and 200 rpm for 16-18 h. Cells were harvested by centrifugation (15 min. at 6,200×g, 4° C.), washed with 20 mM HEPES-NaOH, pH 7.5, pooled, weighed, and resuspended in a solution containing 20 mM HEPES-NaOH, pH 7.5, 20 μM pyridoxal-5-phosphate, and 1.3 mM of dithiothreitol in a 1:3 ratio of wet weight cells to solution. Then, cells were disintegrated by 10 min. sonification with a Soniprep 150 of MSE operated at maximum amplitude using time intervals of 10 sec. (i.e., 10 sec. sonification, 10 sec. cooling) and cooling in ice/acetone. Particles were removed by centrifugation, after which sucrose was added to the cell free extract to a final concentration of 0.25 M. The resulting cell free extract (CFE) was stored in aliquots at −20° C. E. coli TOP10/pBAD/Myc-HisC (Invitrogen) cells were treated in exactly the same way and served as negative control.
The substrate specificity of the α-H-α-amino acid racemase from O. anthropi IA was determined by measuring the racemase activity of the above-mentioned CFE towards a number of enantiomerically pure amino acid amides. Each reaction mixture of 10 ml (including the CFE) contained 50 mM HEPES-NaOH, pH 8.0, 20 μM pyridoxal-5-phosphate, 0.4 mg/ml BSA, 1 mM dithiothreitol, 20 mM EDTA and 75 mM of one of the amino acid amides tested. Reactions were started by the addition of 1 ml of the thawed CFE of E. coli TOP10/pKEC_AZAR—3 or E. coli TOP10/pBAD/Myc-HisC (blank) and were incubated at 37° C. At regular time intervals samples of 1 ml were taken and transferred to vials containing 1 ml of 1M H3PO4 to stop the reaction. After sufficient dilution of the samples in 0.4 M borate buffer pH 9.4, the mixtures obtained were analyzed using HPLC to determine the exact concentrations of the two amino acid and two amino acid amide enantiomers according to the following method.
The initial activity for the different substrates tested was calculated from the linear parts of the progress curves, in which the conversion was plotted against the reaction time. Use of the linear part of the progress curves secured that only samples taken at time points at which the substrate concentration was still sufficiently high, were used for the calculations. The conversion was calculated by dividing the amount of amino acid and amino acid amide formed via the racemase reaction (so with the opposite stereochemistry compared to the substrate molecule) by the total amount of two amino acid enantiomers and the two amino acid amide enantiomers.

[4] = tested on: partially purified α-H-α-amino acid amide racemase from O. anthropi IA; test: Substrate specificity of the partially purified racemase (Example 8); format: biochemical, Ochrobactrum anthropi IA; set-up: tested at 75 mM; details: relative to the activity towards L-leucine amide; pH 8.0, 37° C.
Method: The substrate specificity of the O. anthropi IA α-H-α-amino acid amide racemase was determined using the partially purified enzyme preparation obtained by the protocol described above. Reaction mixtures of 1 ml total volume were prepared by mixing 772 μl of 66.6 mM HEPES-NaOH, pH 8.0, 10 μl of 0.1 M dithiothreitol, 18 μl of a solution containing 20 mg/ml BSA and 1 mM pyridoxal-5-phosphate, and 100 μl of a 0.75 M substrate solution, pH 8.0. After equilibration for 5 minutes at 37° C., the reactions were started by the addition of 100 μl of the enzyme solution. Reaction mixtures were incubated at 37° C. without shaking. After regular time intervals, samples of 50 μl were taken and transferred into vials containing 950 μl of 1 M H3PO4 to stop the reaction. After sufficient dilution of the samples in 0.4 M borate buffer pH 9.4, the mixtures obtained were analyzed using HPLC to determine the exact concentrations of two amino acid amide enantiomers according to the method of Example 7.
Initial activity for the different substrates tested was calculated from the linear parts of the progress curves, in which the amount of the amino acid amide enantiomer formed (so with a stereochemistry opposite to the substrate molecule) was plotted against the reaction time.

[5] = molecular target: T1, α-amino-ε-caprolactam racemase from Achromobacter obae (Achromobacter obae, UniProt Q7M181); details: even when an excess amount of enzyme was used; cited from earlier work
T1 sequence (Q7M181 1-436): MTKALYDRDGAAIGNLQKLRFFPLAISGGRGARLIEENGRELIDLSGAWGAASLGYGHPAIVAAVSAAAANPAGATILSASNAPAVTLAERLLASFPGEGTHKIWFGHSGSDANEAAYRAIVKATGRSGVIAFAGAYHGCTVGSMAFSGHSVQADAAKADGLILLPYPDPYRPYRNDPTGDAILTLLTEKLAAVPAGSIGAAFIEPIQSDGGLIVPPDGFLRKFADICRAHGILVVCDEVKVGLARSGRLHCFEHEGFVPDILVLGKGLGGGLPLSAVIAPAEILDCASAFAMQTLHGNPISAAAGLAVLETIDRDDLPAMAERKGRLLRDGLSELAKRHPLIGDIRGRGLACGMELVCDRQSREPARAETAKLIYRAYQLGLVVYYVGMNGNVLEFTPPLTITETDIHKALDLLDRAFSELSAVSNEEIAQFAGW

[6] = tested on: lyophilized O. anthropi IA cells; test: α-H-α-amino acid amide racemase activity of lyophilized O. anthropi IA cells; format: biochemical, Ochrobactrum anthropi IA; details: approximately 72 hours at 40° C., 10 times diluted reaction mixture
Method: O. anthropi IA cells were cultivated in Medium A containing DL-α-amino-ε-caprolactam (2 g/l) as sole nitrogen source. After incubation at 28° C. and 200 rpm for three days (OD620 nm=4.7), cells were harvested by centrifugation, washed in 20 mM HEPES-NaOH buffer of pH 7.7 and lyophilized.
The assay mixture consisted of 10 mM HEPES-NaOH buffer (pH 7.7) containing toluene (2,5 v/v %), pyridoxal-5-phosphate (20 μM), D- or L-leucine amide (2.5 m %) and in some cases EDTA (20 mM). Per assay 150 mg of lyophilized cells were used. Chemical blanks (with the assay mixture without the O. anthropi IA cells) were used as a negative control. All reaction mixtures (including the blanks) were incubated for approximately 72 hours at 40° C. before the reaction was stopped by the addition of 9 volumes of 1 M H3PO4. Finally, the reaction mixtures were analyzed by HPLC to determine the concentrations of D- and L-leucine amide and of D- and L-leucine. o-Phthaldehyde in combination with D-3-mercapto-2-methylpropionic acid was used in this HPLC method as a chiral reagent for the enantioseparation of these amino compounds (Duchateau, et al., J. Chromatogr. (1992) 623:237-245).
In a number of reactions EDTA was added to inhibit L- and/or D-specific amidase(s) present in the O. anthropi IA cells.
Without EDTA, amidases convert the substrate and/or product α-H-α-amino acid amides into α-H-α-amino acids thereby preventing direct detection of the other α-H-α-amino acid amide enantiomer as racemization product. […] Formation of L-leucine from D-leucine amide could not be detected in the chemical blank.

Row | SMILES | Rel. initial activity [4] [%] | α-H-α-amino acid amide racemase activity [5] | also measured
1 | CC(C)[C@@H](N)C(N)=O [D-valine amide] | – | – | Rel. initial activity [1]: 45%; conversion of D-amide into L-acid [2]: significantly converted
2 | C[C@@H](N)C(N)=O [D-alanine amide] | – | – | Rel. initial activity [3]: 85%
3 | CC[C@H](N)C(N)=O [L-2-aminobutyric acid amide] | 641 | – | Rel. initial activity [3]: 203%; Rel. initial activity [1]: 76%
4 | CC(C)[C@H](N)C(=O)N[C@@H](C)C(=O)O [L-valyl-L-alanine] (H-Val-Ala-OH) | – | no α-H-α-amino acid amide racemase activity was found | –
5 | CC(C)C[C@H](N)C(=O)NCC(=O)O [L-leucyl-glycine] (H-Leu-Gly-OH) | – | no α-H-α-amino acid amide racemase activity was found | –
6 | NC(=O)[C@H](N)c1ccccc1 [D-phenylglycineamide] | 9.1 | – | –
7 | CC(C)C[C@H](N)C(N)=O [L-leucine amide] | 100 | no α-H-α-amino acid amide racemase activity was found | D-leucine ([6]; with EDTA (20 mM)): 0.003 m %; D-leucine amide ([6]; with EDTA (20 mM)): 0.021 m %; L-leucine ([6]; with EDTA (20 mM)): 0.058 m %; L-leucine amide ([6]; with EDTA (20 mM)): 0.15 m %; D-leucine ([6]; without EDTA): 0.001 m %; D-leucine amide ([6]; without EDTA): <0.001 m %; L-leucine ([6]; without EDTA): 0.21 m %; L-leucine amide ([6]; without EDTA): <0.001 m %
8 | CC[C@H](C)[C@H](N)C(N)=O [LL-isoleucine amide] | 4.5 | – | –
9 | CC(C)[C@H](N)C(=O)NCC(=O)O [L-valyl-glycine] (H-Val-Gly-OH) | – | no α-H-α-amino acid amide racemase activity was found | –
10 | NC(=O)[C@@H](N)CO [L-serine amide] | – | – | Rel. initial activity [3]: 83%
11 | C[C@H](N)C(N)=O [L-alanine amide] | 350 | – | –
12 | CC(C)C[C@H](N)C(=O)N[C@@H](C)C(=O)O [L-leucyl-L-alanine] (H-Leu-Ala-OH) | – | no α-H-α-amino acid amide racemase activity was found | –
13 | C[C@H](O)[C@H](N)C(N)=O [LL-threonine amide] | 100 | – | –
14 | CC(C)[C@H](N)C(N)=O [L-valine amide] | 4.5 | – | –
15 | NC(=O)[C@@H](N)Cc1ccccc1 [L-phenylalanineamide] | 4.5 | – | –
16 | NC(=O)[C@@H](N)Cc1c[nH]c2ccccc12 [L-tryptophan amide] | – | no α-H-α-amino acid amide racemase activity was found | –
17 | NC(=O)[C@H](N)CCCC1OCCO1 [D-2-amino-5-[1,3]dioxolan-2-yl-pentanoicacid amide] | 9.1 | – | –
18 | CCC[C@@H](N)C(N)=O [D-norvaline amide] | 341 | – | Rel. initial activity [3]: 94%; Rel. initial activity [1]: 107%
